One experiment concerns the target T1, hNav1.3 (Homo sapiens, UniProt Q9NY46).
T1 construct: expressed in transfected cells; host or cells: HEK293T
Nature of the experiment: Subtype selectivity, patch clamp. As to conditions: 1 μM. It counts as cell-based. On the procedure: (§1) VGSC inhibitors required credible subtype selectivity to void side effects caused by binding to nontarget subtypes. At a concentration of 1 μM, the inhibitory rates of WN2-R on hNav1.2, hNav1.3, hNav1.4, hNav1.5, mNav1.6, and hNav1.8 were determined (n = 3 to 6, Fig. 7A). […] To further evaluate the drug safety profile, high-dose acute toxicity experiments were conducted. Mice were administered a high dose of 30 mg/kg WN2-R through i.p. administration. The rotarod test, forced-swim test, and open field test were used to explore the effect of high-dose WN2-R on the motor ability of mice (n = 4). The rotarod test evaluated the drug's effect on motor coordination, the forced-swim test examined its impact on the overall motor system, and the open field test assessed the drug's influence on the motor and nervous systems.
(§2) Human embryonic kidney (HEK) 293T (ATCC CRL-3216) and ND7/23 cells (National Collection of Authenticated Cell Cultures SCSP-5026) were cultured under standard conditions (5% CO2, 37 °C) in Dulbecco’s modified Eagle’s medium (DMEM) containing 10% fetal bovine serum and 1% penicillin-streptomycin solution(all from Gibco, Thermo Fisher Scientific, Waltham, MA, USA). When the cells reached 70% to 90% confluence, human Nav1.2 (hNav1.2), human Nav1.3 (hNav1.3), human Nav1.4 (hNav1.4), human Nav1.5 (hNav1.5), and mouse Nav1.6 (mNav1.6) channel plasmids were cotransfected with enhanced green fluorescent protein (eGFP) into HEK293T cells. Additionally, plasmids expressing β1 and β2 subunits tagged with eGFP were cotransfected with the human Nav1.7 (hNav1.7) channel into HEK293T cells. Human Nav1.8 (hNav1.8) was transiently transfected into ND7/23 cells, along with eGFP, using Lipofectamine 2000 (Invitrogen), adhering strictly to the manufacturer’s protocol. For manual patch-clamp experiments, the cells were plated onto glass coverslips and used within 20 to 48 h of transfection.
(§3) Whole-cell patch-clamp recordings were conducted at 25 ± 2 °C, utilizing an EPC 10USB patch-clamp amplifier (HEKA Elektronik, Lambrecht, Germany). Pipettes, with access resistance between 2.0 and 3.0 MΩ, were pulled from borosilicate glass capillary tubes using a 2-step vertical microelectrode puller (PC-10, Narishige Group, Tokyo, Japan). Voltage-clamp recordings were obtained with PatchMaster software v2 × 73 (HEKA Elektronik) 5 min after establishing whole-cell configuration, sampled at 20 kHz, and filtered at 5 kHz. To minimize voltage errors, 80% series resistance compensation was applied. Pipettes were filled with 140 mM CsF, 10 mM NaCl, 1 mM EGTA, and 10 mM HEPES (pH=7.4, adjusted with CsOH). The external solution contained 140 mM NaCl, 2 mM CaCl2, 1 mM MgCl2, 5 mM KCl, 10 mM HEPES, and 10 mM glucose (pH=7.4, adjusted with NaOH). IC50 values were determined in HEK293T or ND7/23 cell lines by voltage clamping at −80 mV, followed by stepping to the V1/2 of inactivation for 8 s to facilitate compound binding.

The next experiment addresses T2, hNav1.4 (Homo sapiens, UniProt P35499).
T2 construct: expressed in transfected cells; host or cells: HEK293T
Nature of the experiment: Subtype selectivity, patch clamp. It counts as cell-based. As to conditions: read-out: Inhibitory rate on Nav1.4. The protocol: as §1, §2, §3
For orientation: In patch-clamp work, channel activity is measured electrically.

A further experiment addresses T3, hNav1.5 (Homo sapiens, UniProt Q14524).
T3 construct: expressed in transfected cells; host or cells: HEK293T
Nature of the experiment: Subtype selectivity, patch clamp. The experiment is classed as cell-based. As to conditions: read-out: Inhibitory rate on Nav1.5. On the procedure: as §1, §2, §3

Another experiment concerns the target T4, mNav1.6 (Mus musculus, UniProt Q9WTU3).
T4 construct: expressed in transfected cells; host or cells: HEK293T
Nature of the experiment: Subtype selectivity, patch clamp. It counts as cell-based. As to conditions: 1 μM. The protocol:
as §1, §2, §3

In experiment [1] the test system is SNI neuropathic pain model in mice. Nature of the experiment: Spared nerve injury (SNI) neuropathic pain model. The experiment is classed as in vivo, C57 mice. An excerpt: Peripheral nerve injury models were developed to investigate the mechanisms of neuropathic pain. One such model, the spared nerve injury (SNI) neuropathic pain model in mice, involved ligating and transecting the […] and tibial nerves within the […] nerve, while leaving the sural nerve untouched. […] To evaluate the neuroanalgesic potential of WN2-R in this model, both i.g. and i.m. routes were used to evaluate the neuroanalgesic effect of WN2-R in this model (n = 5). […] In contrast, PF-05089771 reached its peak at 1 h (PWTs = 1.08 g) but then rapidly lost its efficacy, resembling the saline control group after 1 h. Throughout the experiment, the PWTs of the WN2-R group remained consistently higher than that of the PF-05089771 group (Fig. 6F and G). […] Subsequently, the efficacy of both drugs gradually declined, converging with the saline group after 3 h. Throughout the entire dosing period, the PWTs of the WN2-R group were slightly higher than that of the PF-05089771 group (Fig. 6M and N). […] To elucidate the time course of pain hypersensitivity induced by SNI, the behavioral responses (mechanical testing with von Frey fibers) were measured before surgery (baseline value) in C57 mice (5 female). Then, the mice underwent SNI surgery, which involved ligation and axotomy of the common peroneal and tibial nerves, while sparing the sural nerve. Sham-operated mice served as controls, with their nerves remaining intact. To confirm the presence of pain hypersensitivity in the SNI group, behavioral testing was carried out 14 days after SNI in each animal. Post drugs/saline administration, PWTs were measured at 0, 0.5, 1, 1.5, 2, 2.5, and 3 h for the i.g. route, and at 0, 0.5, 1, 2, 3, and 4 h for the i.m. route.

T3 sequence (Q14524 whole entry): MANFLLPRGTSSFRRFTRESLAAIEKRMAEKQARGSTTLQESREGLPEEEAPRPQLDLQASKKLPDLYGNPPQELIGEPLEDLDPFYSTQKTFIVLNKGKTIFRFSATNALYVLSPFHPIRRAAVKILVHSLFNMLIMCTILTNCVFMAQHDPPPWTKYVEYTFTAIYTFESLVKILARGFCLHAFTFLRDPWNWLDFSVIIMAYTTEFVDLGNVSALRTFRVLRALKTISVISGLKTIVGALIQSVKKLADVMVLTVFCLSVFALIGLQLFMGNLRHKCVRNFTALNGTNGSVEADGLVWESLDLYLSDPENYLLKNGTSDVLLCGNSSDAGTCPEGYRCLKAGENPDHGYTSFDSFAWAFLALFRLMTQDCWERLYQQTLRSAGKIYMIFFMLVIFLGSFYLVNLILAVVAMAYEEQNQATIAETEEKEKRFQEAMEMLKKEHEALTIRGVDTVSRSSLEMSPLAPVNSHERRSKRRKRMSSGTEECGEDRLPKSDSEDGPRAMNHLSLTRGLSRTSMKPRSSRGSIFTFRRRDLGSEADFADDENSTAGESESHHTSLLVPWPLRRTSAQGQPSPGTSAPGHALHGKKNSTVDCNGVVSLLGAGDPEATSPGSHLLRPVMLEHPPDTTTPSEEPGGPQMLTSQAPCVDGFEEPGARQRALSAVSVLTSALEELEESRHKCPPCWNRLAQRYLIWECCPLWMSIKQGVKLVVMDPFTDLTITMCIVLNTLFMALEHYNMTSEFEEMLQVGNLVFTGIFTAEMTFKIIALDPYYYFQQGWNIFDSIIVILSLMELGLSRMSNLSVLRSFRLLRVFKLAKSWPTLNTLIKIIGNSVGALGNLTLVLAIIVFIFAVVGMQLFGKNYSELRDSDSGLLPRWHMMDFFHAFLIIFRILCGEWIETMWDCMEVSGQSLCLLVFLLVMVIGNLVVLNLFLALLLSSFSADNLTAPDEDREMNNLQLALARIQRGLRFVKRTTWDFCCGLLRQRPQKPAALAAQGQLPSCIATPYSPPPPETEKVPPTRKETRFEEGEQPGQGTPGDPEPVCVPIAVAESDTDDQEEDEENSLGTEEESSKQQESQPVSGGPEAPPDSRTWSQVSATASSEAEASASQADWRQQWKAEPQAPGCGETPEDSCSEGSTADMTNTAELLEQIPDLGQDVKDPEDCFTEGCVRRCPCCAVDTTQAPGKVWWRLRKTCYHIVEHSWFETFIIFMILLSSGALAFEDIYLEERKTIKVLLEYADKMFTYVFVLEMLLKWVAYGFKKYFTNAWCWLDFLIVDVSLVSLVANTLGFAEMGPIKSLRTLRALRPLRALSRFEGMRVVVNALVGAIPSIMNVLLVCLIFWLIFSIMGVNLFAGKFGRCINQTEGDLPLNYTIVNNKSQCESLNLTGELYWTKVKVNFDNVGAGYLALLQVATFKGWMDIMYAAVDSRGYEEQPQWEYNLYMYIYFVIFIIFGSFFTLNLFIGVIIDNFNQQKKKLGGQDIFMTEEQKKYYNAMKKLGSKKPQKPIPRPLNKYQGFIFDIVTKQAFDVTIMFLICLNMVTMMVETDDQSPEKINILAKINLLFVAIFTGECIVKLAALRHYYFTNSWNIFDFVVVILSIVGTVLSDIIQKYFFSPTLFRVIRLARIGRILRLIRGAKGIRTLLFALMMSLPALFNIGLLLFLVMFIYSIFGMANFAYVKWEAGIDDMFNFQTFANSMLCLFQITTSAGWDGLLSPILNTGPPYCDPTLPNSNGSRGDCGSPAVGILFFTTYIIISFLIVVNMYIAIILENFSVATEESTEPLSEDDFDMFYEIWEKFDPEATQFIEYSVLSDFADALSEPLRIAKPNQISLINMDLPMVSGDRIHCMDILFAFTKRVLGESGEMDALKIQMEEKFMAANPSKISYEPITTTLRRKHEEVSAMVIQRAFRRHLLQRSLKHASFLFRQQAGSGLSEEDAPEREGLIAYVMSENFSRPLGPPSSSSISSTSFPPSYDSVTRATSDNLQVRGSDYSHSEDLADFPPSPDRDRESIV
T1 sequence (Q9NY46 whole entry): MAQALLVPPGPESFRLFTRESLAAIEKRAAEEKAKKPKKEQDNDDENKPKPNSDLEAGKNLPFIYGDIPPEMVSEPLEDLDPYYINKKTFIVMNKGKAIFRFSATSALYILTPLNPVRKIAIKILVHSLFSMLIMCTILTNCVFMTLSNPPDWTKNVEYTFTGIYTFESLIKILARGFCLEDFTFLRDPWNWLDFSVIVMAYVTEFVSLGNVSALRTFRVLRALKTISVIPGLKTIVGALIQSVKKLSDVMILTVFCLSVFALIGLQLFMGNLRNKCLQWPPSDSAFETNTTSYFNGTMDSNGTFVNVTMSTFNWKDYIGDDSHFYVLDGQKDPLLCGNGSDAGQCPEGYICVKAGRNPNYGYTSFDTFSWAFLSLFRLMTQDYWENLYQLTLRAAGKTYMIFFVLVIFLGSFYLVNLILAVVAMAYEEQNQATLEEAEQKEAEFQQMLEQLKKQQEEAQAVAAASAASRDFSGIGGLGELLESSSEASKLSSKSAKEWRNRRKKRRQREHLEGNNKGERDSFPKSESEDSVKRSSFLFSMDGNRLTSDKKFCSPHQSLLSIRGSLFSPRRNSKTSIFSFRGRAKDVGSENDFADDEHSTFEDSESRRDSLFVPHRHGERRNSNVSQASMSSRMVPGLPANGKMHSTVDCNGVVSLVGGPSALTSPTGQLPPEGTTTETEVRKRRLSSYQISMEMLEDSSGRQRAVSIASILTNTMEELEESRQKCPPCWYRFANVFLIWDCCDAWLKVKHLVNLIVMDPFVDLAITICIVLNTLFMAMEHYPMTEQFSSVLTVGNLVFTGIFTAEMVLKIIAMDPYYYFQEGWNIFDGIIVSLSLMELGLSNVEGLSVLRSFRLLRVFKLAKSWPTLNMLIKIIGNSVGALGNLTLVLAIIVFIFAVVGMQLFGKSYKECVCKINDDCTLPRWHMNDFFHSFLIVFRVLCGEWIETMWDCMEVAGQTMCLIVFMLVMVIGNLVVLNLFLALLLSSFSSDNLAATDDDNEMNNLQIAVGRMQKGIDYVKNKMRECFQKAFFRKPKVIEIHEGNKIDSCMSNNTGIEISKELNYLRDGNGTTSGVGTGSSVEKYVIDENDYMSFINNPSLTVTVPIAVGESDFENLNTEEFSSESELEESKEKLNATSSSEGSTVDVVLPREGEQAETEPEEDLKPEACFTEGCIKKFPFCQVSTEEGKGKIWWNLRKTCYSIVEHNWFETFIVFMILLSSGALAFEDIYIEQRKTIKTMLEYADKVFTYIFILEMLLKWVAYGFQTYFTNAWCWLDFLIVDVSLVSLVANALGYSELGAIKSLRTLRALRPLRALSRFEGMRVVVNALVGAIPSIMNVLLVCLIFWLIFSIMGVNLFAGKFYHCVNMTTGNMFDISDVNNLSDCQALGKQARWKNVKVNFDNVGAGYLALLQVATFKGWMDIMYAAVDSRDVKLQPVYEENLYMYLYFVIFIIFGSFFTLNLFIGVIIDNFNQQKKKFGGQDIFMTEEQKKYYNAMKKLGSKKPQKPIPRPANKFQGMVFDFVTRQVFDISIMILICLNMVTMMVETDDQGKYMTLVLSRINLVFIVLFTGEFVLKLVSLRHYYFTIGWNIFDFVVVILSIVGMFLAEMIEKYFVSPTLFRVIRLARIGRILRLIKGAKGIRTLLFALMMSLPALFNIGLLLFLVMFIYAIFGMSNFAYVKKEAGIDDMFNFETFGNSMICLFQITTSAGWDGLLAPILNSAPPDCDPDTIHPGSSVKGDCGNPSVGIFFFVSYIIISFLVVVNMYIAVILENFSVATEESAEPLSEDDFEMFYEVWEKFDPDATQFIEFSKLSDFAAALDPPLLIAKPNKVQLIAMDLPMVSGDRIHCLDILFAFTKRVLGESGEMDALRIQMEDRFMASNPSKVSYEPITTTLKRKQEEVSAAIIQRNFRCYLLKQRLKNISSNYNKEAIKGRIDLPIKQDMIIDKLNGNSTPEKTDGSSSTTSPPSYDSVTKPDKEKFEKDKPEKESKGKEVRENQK

On to `Cc1ccc(Cn2cc([C@H](CC(=O)NCCN(C)C)c3ccc(F)cc3)c3ccccc32)cc1` [WN2-R], for which the “Inhibitory rate on hNav1.3” value on hNav1.3 is on record as “much lower than that on Nav1.7”. Further, the inhibition at 1 µM was 16.3% on hNav1.4 and 19.1% at hNav1.5. The “Inhibitory rate on mNav1.6” value on mNav1.6 is listed as “much lower than that on Nav1.7”. In experiment [1] (i.g.), the “Duration of significant efficacy” value is recorded as “at least 2 h”. Moreover, the “Paw withdrawal threshold (PWTs)” value in experiment [1] (i.g., 1 h post drug application, 14 days after SNI) came out at 1.72 g. In experiment [1] (i.m.), the “Time after which efficacy converged with the saline group” value is reported as 3 h. For the same compound, the “Time of peak efficacy” value in experiment [1] (i.m.) is reported as 1 h. In addition, the “Paw withdrawal threshold (PWTs) at peak efficacy” value in experiment [1] (i.m., 1 h post drug application, 14 days after SNI) was 1.39 g.

Values taken from publication PMC11775380, “Discovery of Novel Nav1.7-Selective Inhibitors with the 1H-Indole-3-Propionamide Scaffold for Effective Pain Relief” (Research, 2025).
